“Also recorded” adds a separate entry of the source.
Assays:
[1] = system: THP-1 macrophages; test: Foam cell formation / nLDL macropinocytosis, Nile Red FACS; type: cell-based, human; conditions: EIPA 25 μM, 1 hr pre-incubation; nLDL 50 μg/ml
Description: Flow cytometry experiments were performed using the BD Accuri C6 flow cytometer using a standard protocol.
Foam cell formation: THP-1 macrophages or bone marrow-derived macrophages were treated with vehicle, known macropinocytosis stimulators (PMA 1 μM, M-CSF 100 ng/mL or PDGF 200 ng/mL)+/− macropinocytosis inhibitors (imipramine 10 μM or EIPA 25 μM; 1 hour pre-incubation) in the presence of nLDL, ox-LDL, or ac-LDL ([…]) for 24 hours. Cells were fixed in 2% PFA and stained with Nile Red (50 ng/mL) for 7 min. Fluorescence intensity was measured using the FL3 channel for Nile Red (Ex: 488 nm, Em: 670 nm).

[2] = system: RAW 264.7 macrophages; test: Caveolin-mediated endocytosis of Alexa Fluor 488-albumin; type: cell-based; conditions: EIPA 25 μM, 1 hr; AF488-albumin 1 μg/ml
Description: Clathrin- and caveolin-mediated endocytosis: Receptor-mediated uptake of FITC-transferrin (1 μg/mL; clathrin-mediated endocytosis) and Alexa Fluor 488-albumin ([…]; caveolin-mediated endocytosis) was investigated in RAW 264.7 macrophages following their incubation with ±EIPA (25 μM; 1 hour pre-incubation). Fluorescence intensity was measured using the FL1 channel for FITC and Alexa Fluor 488 (Ex: 488 nm, Em: 530 nm).

[3] = system: hypercholesterolemic mice (PCSK9-AAV-mediated LDLR knockdown); test: Atherosclerosis model: PCSK9-AAV, partial LCA ligation, Western diet; type: in vivo, mouse; conditions: for inhibition of atherosclerotic lesion area (ORO positive area, LCA): continuous infusion via subcutaneous osmotic pump
Description: Mice were given a single injection of AAV-PCSK9 (1×1011 VG) and fed a Western diet (Envigo, TD.88137, Indianapolis, Ind.). One week after AAV-PCSK9 injection, mice underwent partial carotid ligation surgery as previously described (67) and Western diet was continued for another 3 weeks. In separate experiments, mice were given a single injection of AAV-PCSK9 (1×1011 VG) and fed a Western diet for 16 weeks. Mice were anesthetized (isoflurane inhalation, 3%) and exsanguinated. Blood was collected from left ventricle using a heparinized syringe fitted with a 21 G needle. Aortic arch and carotid arteries were collected, and gross macroscopic images were acquired. For molecular histology studies, carotids and aortic arch were fixed in 4% paraformaldehyde (PFA), embedded in OCT compound and stored at −80° C. until use.
ORO staining: Atherosclerosis development in carotid arteries and whole aorta were studied initially by gross imaging followed by Oil Red O (ORO) staining and plaque quantification. Briefly, the entire aorta was isolated, cleaned of peri-adventitial fat, fixed and imaged on the surface of black silicone-coated dissection dishes. Left carotid arteries were embedded in OCT and 10 μm thick cross-sections were prepared. The arteries were divided into 3 regions based on their distance from the aortic arch: proximal (0-400 μm), middle (2,000-2,400 μm) and distal (4,000-4,400 μm). Frozen sections and whole aortas were then stained with ORO solution (2%) and images were taken using light microscope equipped with a camera under 20× and 1.6× objective lens. The total area, lumen area and ORO positive area were measured for six sections/anatomical position per mouse using Image J software. The ratio of ORO positive area to arterial area is represented as plaque area. Plasma total cholesterol concentrations were determined by the Amplex™ Red Cholesterol Assay Kit (ThermoFisher, Rockford, Ill.). Plasma lipid profiles were obtained by column fractionation and measurements of fraction cholesterol content.
Hematoxylin and Eosin (H&E) or Masson's trichrome staining: Frozen sections were also used for Hematoxylin and Eosin (H&E) or Masson's trichrome staining following standard procedures to evaluate the lesion size and collagen content, respectively.
Orcein and Martius Scarlet Blue (OMSB) staining: OMSB was used for qualitative and quantitative analysis of atherosclerotic plaques as previously described. Briefly, left carotid arteries were dissected out, fixed in 4% buffered paraformaldehyde (pH=7.4) for at least 48 hr, and then routinely processed and embedded in paraffin (tissue processor TP1020; Leica, Wetzlar, Germany). Cross sections were cut every 5 m along the artery (starting from the proximal end) and mounted serially on silanized slides. Sections were stained and mounted automatically using Leica ST5010 Autostainer XL combined with Leica CV5030 Glass Coverslip. Deparaffinized sections through xylene and ethanol, and rehydrate to water. Postfix sections in Bouin's fixative at 56° C. for 1 hour, then rinse for 10 min in tap water to remove traces of picric acid. Stain with orcein for 20 min at 56° C. Differentiate in acidic alcohol for 2 min and then transfer to 96% ethanol for 30 s. Stain with martius yellow for 3 min and rinse in distilled water (2×2 min). Stain with crystal scarlet for 10 min. Differentiate with phosphotungstic acid 2 min and transfer to distilled water (for about 10 s). Stain with methyl blue 5 min. Rinse in acetic acid water 3 min, dehydrate through ethanol and carbol-xylene, clear in xylene, and mount in DPX or other resin. Staining of collagen with picrosirius red. The sections were examined and digital images of stained arteries were recorded using Olympus dotSlide system (Olympus, Tokyo, Japan). Segmentation algorithm allowed to distinguish vessel wall area, lumen area, plaque area, and area of the plaque occupied by collagen. The results were presented as areas of identified components in μm2. […]

[4] = system: human aortic endothelial cells; test: qRT-PCR of SR-B1 mRNA expression; type: cell-based; conditions: EIPA 25 μM, 24 hr
[5] = EIPA vs vehicle, WT and CD36-/-/SR-A-/- mice
[6] = EIPA vs vehicle, WT and CD36-/-/SR-A-/- mice, LCA

SMILES: CCN(c1nc(N)c(C(=O)N=C(N)N)nc1Cl)C(C)C [EIPA, 5-(N-ethyl-N-isopropyl)amiloride]
- PMA-induced nLDL macropinocytosis [1]: blocks macrophage macropinocytosis; also recorded: inhibits
- caveolin-dependent albumin internalization [2]: without inhibiting; also recorded: does not inhibit
- blood pressure (systolic) [3, 5]: not different
- body weight [3, 5]: not different
- CD68+ macrophage staining [3, 6]: significantly decreased
- Collagen content (Masson's trichrome) [3, 6]: significantly decreased
- atherosclerotic lesion area (H&E) [3, 6]: significantly decreased
- atherosclerosis (plaque area, OMSB, LCA) ([3]; female WT mice, PCSK9-AAV (LDLR-deficient), Western diet 4 weeks, EIPA via subcutaneously implanted minipump): inhibited atherosclerosis; also recorded: attenuates
- inhibition of atherosclerotic lesion area (ORO positive area, LCA) ([3]; male CD36-/-/SR-A-/- mice, Western diet 4 weeks): ~80%
- inhibition of atherosclerotic lesion area (ORO positive area, LCA) ([3]; male WT mice, Western diet 4 weeks): ~80%
- atherosclerosis development ([3]; wild-type and SR knockout mice): reduces
- SR-B1 mRNA levels [4]: does not increase

Reference: patent publication US20210386754A1, “COMPOSITIONS AND METHODS FOR TREATING ATHEROSCLEROTIC VASCULAR DISEASE” (AUGUSTA UNIVERSITY RESEARCH INSTITUTE, INC., priority 2020, published 2021)
